The source of these data is PubChem BioAssay AID463199 (Broad Institute, 2010).

Calls of active or inactive are those of the source.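 How the source made its calls: active means AC50, the dose giving half-maximal effect, exceeds a fixed cutoff for a compound that rescues yeast growth under heat; inactive means the rest, inconclusive results apart.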

For this assay, the system named is S. cerevisiae Burl-1 ts mutant growth, BacTiter-Glo, 38.5C 24 h. As to the kind of experiment: restored growth of temperature-sensitive Burl-1 yeast – whole organism, S. cerevisiae, Burl-1 ts mutant, luminescence, counter-screen for SUMOylation pathway inhibitor project, dose response (AID 463199). (The purpose of a counterscreen is to sort out artefacts and off-target activity.)
As usually defined, the AC50 is the midpoint of the concentration-response curve, whichever way the signal moves. Turning to `O=C(NC(=S)NNC(=O)c1ccccc1O)c1cccc([N+](=O)[O-])c1`, the AC50 was > 42 µM (inactive). The result for `COC(=O)C12CCC3(SCCS3)C(C(=O)OC)(CCC13SCCS3)C2` reads > 42 µM (inactive); that for `CCN(CC(=O)NCc1ccc(Cl)cc1)C(=O)/C=C/c1ccc(C#N)cc1`, > 42 µM (inactive). The result for `COc1ccc(C(=O)O/N=C(\N)c2ccccc2)cc1OC` reads > 42 µM (inactive); that for `O=c1[nH]cnc2sc3c(c12)CCC3`, > 42 µM (inactive). The same measure for `O=c1cnc2cc([N+](=O)[O-])ccc2[nH]1`: > 42 µM (inactive); for `CCOc1ccc(CCNC(=O)COC(=O)c2cccc(OC)c2O)cc1OCC`: > 42 µM (inactive); for `COc1ccc2c(CC(=O)Nc3ccc(OC)c(NS(=O)(=O)c4ccc(F)cc4)c3)coc2c1`: > 42 µM (inactive). For the compound `O=C1CC(c2c[nH]c3ccccc23)C(=O)N1c1ccccc1` (stereo not drawn), the AC50 is > 42 µM (inactive). As to `COc1ccc(S(=O)(=O)N2CCc3cc4c(cc3C2C)OCCCO4)cc1` (stereo not drawn), the AC50 was > 42 µM (inactive). For the compound `COc1cccc(N2CCN(C3CCCC(C)C3)CC2)c1` (stereo not drawn), the AC50 is > 42 µM (inactive). The result for `O=C(NCC1CCN(Cc2ccccc2Cl)CC1)Nc1ccccc1F` reads > 42 µM (inactive). Consider `COC(=O)c1ccccc1N(C)S(C)(=O)=O`, for which the AC50 was > 42 µM (inactive).

As to `COc1ccc(C(=O)N/C(=C\c2cn(C)c3ccccc23)C(=O)OCCN(C)C)cc1`, the AC50 is > 42 µM (inactive). The same measure for `N#CC1=C(SCC(N)=O)NC(=O)CC1c1ccccc1Cl` (stereo not drawn): > 42 µM (inactive); for `Cc1nnc(SCC(=O)NC(C)(C)C)n1NCc1ccc(Cl)cc1`: > 42 µM (inactive); for `Cc1cc(C)c(NC(=O)Cn2c([N+](=O)[O-])cnc2C)c(C)c1`: > 42 µM (inactive). The result for `Fc1ccc2c(c1)nnn2C1CCN(Cc2nnnn2C2CCCCC2)CC1` reads > 42 µM (inactive); that for `O=C(c1ccc(CS(=O)(=O)c2ccccc2)o1)N1CCOCC1`, > 42 µM (inactive). For the compound `CC1=C(C(=O)Nc2ccccc2)C(c2ccccc2[N+](=O)[O-])NC(=O)N1` (stereo not drawn), the AC50 was > 42 µM (inactive). The result for `CCOC(=O)C1CCN(C(=O)c2sccc2Cl)CC1` reads > 42 µM (inactive).

As for `COc1ccc(C2SCC(=O)Nc3c2c(=O)[nH]n3C2CCCCC2)cc1` (stereo not drawn), the AC50 was > 42 µM (inactive). With `CC(C)(C)NC(=O)NC(=O)CN1CCN(S(=O)(=O)c2ccc3c(c2)OCCO3)CC1`, the AC50 is > 21 µM (inactive). As for `Cc1nc2nc[nH]n2c(=O)c1NS(=O)(=O)c1ccc([N+](=O)[O-])cc1`, the AC50 was > 42 µM (inactive). The result for `O=C(CN1CCc2ccccc21)NN1CC(=O)N(c2ccc(Cl)cc2)CC1=O` reads > 42 µM (inactive); that for `Cc1nn(CC(=O)Nc2ccccn2)c(C)c1[N+](=O)[O-]`, > 42 µM (inactive); that for `N#CC(CC(=O)c1ccc(F)cc1)c1ccc2c(c1)OCO2` (stereo not drawn), > 42 µM (inactive).

Consider `COc1ccc2[nH]c(=O)c(CN(C(=O)c3ccccn3)c3ccccc3)cc2c1`, for which the AC50 was > 42 µM (inactive). Regarding `COc1ccc2c(c1)[C@H]1[C@H](CO2)[C@H](c2ccccc2)[C@]2(C)C(=O)Nc3ccc(F)cc3C(=O)N12`, the AC50 was > 42 µM (inactive). Turning to `CCc1nn(C)c(N)c1C`, the AC50 was > 42 µM (inactive). The result for `Cc1sc(NC(=O)c2ccc(Br)s2)c(C(N)=O)c1C` reads > 42 µM (inactive). The same measure for `c1ccc2cc(C3CCCCC3)ncc2c1`: > 42 µM (inactive); for `Cc1cc(=O)oc(C)c1C(=O)Nc1ccc(Cl)cn1`: > 42 µM (inactive); for `Cc1cccc(N2CCN(C(=O)CN3C(=O)NC(C)(C)C3=O)CC2)c1C`: > 42 µM (inactive). Consider `COc1cc(C(=O)Nc2sc3c(c2C(=O)O)CCC(C)C3)cc(OC)c1OC` (stereo not drawn), for which the AC50 is > 42 µM (inactive). The same measure for `Cc1ccc(S(=O)(=O)N[C@@H](Cc2ccccc2)C(=O)CCl)cc1`: > 42 µM (inactive); for `O=C(COC(=O)c1ccccc1SCC(=O)N1CCCC1)NC1CCCCC1`: > 42 µM (inactive); for `Cc1ccc(S(=O)(=O)N2[C@@H](c3ccccc3F)C(C(=O)O)=CC[C@H]2c2ccc3c(c2)OCO3)cc1`: > 42 µM (inactive). The same measure for `C/C(=N\N=C(/N)SC1CC(=O)N(c2cccc(Cl)c2)C1=O)c1cccs1` (stereo not drawn): > 42 µM (inactive).

Regarding `COc1cc(/C=C2\NC(=S)N(C)C2=O)ccc1OCc1cccc(F)c1`, the AC50 was > 42 µM (inactive). The same measure for `O=C1CC(c2ccccc2)c2ccc(O)cc2O1` (stereo not drawn): > 42 µM (inactive); for `CN(C)CCNC(=O)c1c(O)c2c([nH]c1=O)CCCC2`: > 42 µM (inactive).

Take `COc1ccccc1NC(NC(=O)c1ccco1)C(=O)c1ccccc1` (stereo not drawn): the AC50 is > 42 µM (inactive). `Nc1ncnc2nc(SCC(=O)N3CCN(c4ccccc4)CC3)[nH]c12`: the AC50 is > 42 µM (inactive). The same measure for `N=c1c2c(n(Cc3ccc(Cl)c(Cl)c3)c3c1CCC3)CCCC2`: > 42 µM (inactive); for `Cc1cccc(OCCN2CSC(=S)N(C)C2)c1`: 31.6 µM; for `O=c1[nH]nc(Cc2ccc(-c3ccccc3Cl)o2)c2ccccc12`: > 42 µM (inactive). The result for `Cc1cccc(C(=O)NCC(=O)N2CCN(c3ccc(Cl)cc3)CC2)c1` reads > 42 µM (inactive); that for `COc1ccccc1NC(=O)NCCc1c[nH]c2ccccc12`, > 42 µM (inactive). The result for `CCN(C(=O)COC(=O)c1cc([N+](=O)[O-])ccc1N1CCOCC1)C1CCCCC1` reads > 42 µM (inactive). Regarding `COc1ccc(C2C(C(=O)Nc3cc(OC)c(OC)c(OC)c3)c3ccccc3C(=O)N2C)cc1` (stereo not drawn), the AC50 is > 42 µM (inactive).

On to `COc1cc2c(=O)n(CCC(=O)NCC3CCCO3)c(=O)n(CC(=O)Nc3ccccc3C)c2cc1OC` (stereo not drawn), for which the AC50 is > 42 µM (inactive). On to `CCOC(=O)Cn1c(C)c(Br)c(=O)c2cccc(C)c21`, for which the AC50 is > 42 µM (inactive). The same measure for `CC(C)CCOCc1nc2sc3c(c2c(=O)[nH]1)CCC(C)C3` (stereo not drawn): > 42 µM (inactive); for `O=C(CN1CCN(c2ccccc2F)CC1)Nc1nnc(C(F)(F)F)s1`: > 42 µM (inactive).

Consider `Cc1cc(C)c(S(=O)(=O)NCC(c2cccnc2)N2CCN(Cc3ccccc3)CC2)c(C)c1` (stereo not drawn), for which the AC50 is > 42 µM (inactive). The same measure for `CC(C)(C)NC(=O)C1Cc2ccccc2CN1S(=O)(=O)c1ccc(F)cc1` (stereo not drawn): > 42 µM (inactive); for `COc1ccc(OC)c2c(N)c(C#N)c(C(F)(F)C(F)(F)F)nc12`: > 42 µM (inactive); for `CC(NC(=O)c1ccc(Cl)cc1)C(=O)N1CCCCC1` (stereo not drawn): > 42 µM (inactive). The same measure for `O=C(c1ccccc1F)N1CCN=C1SCc1cccnc1`: > 42 µM (inactive); for `CCCCN(C(=O)C1=COCCO1)c1c(N)n(Cc2ccccc2)c(=O)[nH]c1=O`: > 42 µM (inactive); for `O=C(C[n+]1ccc(C(=O)N/N=C/c2ccc(Cl)cc2Cl)cc1)c1ccccc1`: > 42 µM (inactive).

In the case of `CCNC(=O)NC(C(=O)OC)C12CC3CC(CC(C3)C1)C2` (stereo not drawn), the AC50 was > 42 µM (inactive). Turning to `Cc1ccc(SCCNC(=O)CN2C(=O)c3ccccc3S2(=O)=O)cc1`, the AC50 is > 42 µM (inactive). In the case of `Cc1onc(-c2ccccc2Cl)c1C(=O)N1CCc2ccccc2C1`, the AC50 is > 42 µM (inactive). As for `CCOCCn1c(-c2ccc(OC)cc2)nc2ccccc21`, the AC50 is > 42 µM (inactive).

Turning to `Cc1ccc(S(=O)(=O)NC2CCCCCCC2)cc1`, the AC50 is > 42 µM (inactive). The same measure for `O=c1oc2cc(S(=O)(=O)NCCCO)ccc2c2ccc(S(=O)(=O)NCCCO)cc12`: > 42 µM (inactive); for `CSc1cccc(N2C(=O)C3CCCN3C2=S)c1` (stereo not drawn): > 42 µM (inactive); for `COC(=O)/C=C\C(=O)Nc1cccc([N+](=O)[O-])c1`: > 42 µM (inactive). With `CCOC(=O)c1oc2cc(OC(C)=O)ccc2c(=O)c1-c1ccc(OC)c(OC)c1`, the AC50 is > 42 µM (inactive).

In the case of `CC(C)CCCN1CCN=C1Nc1ccccc1`, the AC50 is > 42 µM (inactive).

Turning to `Cc1ccc(O)c(CNc2nc3ccccc3n2C)c1`, the AC50 was > 42 µM (inactive). For `Cc1ccc(NC(=S)NC(NC(=O)c2ccccc2C)C(Cl)(Cl)Cl)c(C)c1` (stereo not drawn), the AC50 is > 42 µM (inactive). The result for `Fc1ccc2nc(C3CCN(Cc4nc(CC5CC5)no4)CC3)[nH]c2c1` reads > 42 µM (inactive); that for `CCCCSCCCNC(=O)Nc1cccc(OC)c1`, > 42 µM (inactive); that for `Cc1ccc(SCCC(=O)Nc2ccc(OCc3ccccc3)cc2)cc1`, > 42 µM (inactive). The same measure for `COc1ccc(N2C(=O)CSC23CCCCC3)cc1`: > 42 µM (inactive); for `Cc1ccc(NC(=O)CSCC(=O)Nc2ccccc2N2CCCC2)cc1`: > 42 µM (inactive). As for `CCc1ccc(S(=O)(=O)NCc2cccnc2)cc1`, the AC50 is > 42 µM (inactive). On to `CC1(C)CC(=O)C2=C(C1)OC(N)=C(C#N)C21C(=O)N(CN2CCOCC2)c2ccccc21` (stereo not drawn), for which the AC50 is > 42 µM (inactive). `COCC(C)n1c(-c2ccc3c(c2)NC(=O)CO3)csc1=Nc1ccc(OC(F)F)cc1` (stereo not drawn): the AC50 was > 42 µM (inactive). Turning to `CCCc1nn2c(=O)cc(CSCC(=O)Nc3ccc(OC)cc3)nc2s1`, the AC50 is > 42 µM (inactive).

Consider `Cc1nn(C)cc1CNC(=O)C1CCC(=O)N(Cc2cccc(C(F)(F)F)c2)C1` (stereo not drawn), for which the AC50 was > 42 µM (inactive). As to `NS(=O)(=O)c1cccc(NC(=O)CSc2nnnn2-c2ccccc2)c1`, the AC50 was > 42 µM (inactive). For `O=C(NCC(=O)N(c1ccccc1)C(C(=O)NCC1CCCO1)c1ccccc1)c1cccs1` (stereo not drawn), the AC50 was > 42 µM (inactive).

Consider `O=C(NNC(=O)C12CC3CC(CC(C3)C1)C2)c1ccccn1`, for which the AC50 is > 42 µM (inactive). Take `COc1ccc(S(=O)(=O)N2CCCOC2CNC(=O)C(=O)NCCCN2CCOCC2)cc1C` (stereo not drawn): the AC50 was > 42 µM (inactive).
